Measured values taken from patent publication US20240417405A1, “Substituted Spiro Derivatives” (Janssen Pharmaceutica NV, priority 2021, published 2024).

Experiments:
[1] = target: T1, menin/MLL (terbium chelate-labeled menin, FITC-MBM1 peptide) (Homo sapiens, UniProt O00255, T541A); experiment: Menin/MLL homogenous time-resolved fluorescence (HTRF) assay; type: binding; settings: 30 min incubation
T1 construct: Menin (a.a 1-610-6xhis tag)
T1 sequence (O00255 with tags, fused parts or gaps T541A): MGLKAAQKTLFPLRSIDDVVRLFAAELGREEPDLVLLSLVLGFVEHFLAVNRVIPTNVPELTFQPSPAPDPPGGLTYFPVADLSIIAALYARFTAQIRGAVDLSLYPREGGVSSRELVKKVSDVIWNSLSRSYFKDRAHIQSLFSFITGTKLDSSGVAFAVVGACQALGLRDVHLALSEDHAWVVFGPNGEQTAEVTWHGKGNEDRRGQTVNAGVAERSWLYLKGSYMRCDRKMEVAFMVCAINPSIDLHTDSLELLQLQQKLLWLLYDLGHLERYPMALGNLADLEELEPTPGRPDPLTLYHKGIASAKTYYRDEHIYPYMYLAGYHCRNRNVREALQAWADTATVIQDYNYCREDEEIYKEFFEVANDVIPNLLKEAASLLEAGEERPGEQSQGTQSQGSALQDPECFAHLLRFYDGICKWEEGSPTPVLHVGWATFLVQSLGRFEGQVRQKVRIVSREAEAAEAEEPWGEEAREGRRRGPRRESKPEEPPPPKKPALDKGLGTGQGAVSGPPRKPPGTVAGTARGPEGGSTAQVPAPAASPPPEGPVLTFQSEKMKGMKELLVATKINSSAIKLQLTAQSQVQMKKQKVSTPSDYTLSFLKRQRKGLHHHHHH
Summary of the method: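 Read-out: TR-FRET ratio (FITC 520 nm / terbium 490 nm, ex. 337 nm) after 15 min with 75 nM FITC-MBM1 peptide. Test compound first sat 30 min with 200 pM Tb-menin 1-610-His, 0.5% DMSO, pH 7.5 Tris buffer. IC50 by Hill fit; values under 0.1 nM reported as 0.1 nM.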

MOLM14 cells = experiment: Proliferation assay, spheroid-like growth, MOLM14 (MLL-AF9 rearranged); type: cell-based, human; settings: Homo sapiens, MOLM-14, 192 h, 8 days, confluence as measure of spheroid size, read-out: spheroid assay_OneTime MOLM14 IC50
Summary of the method: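 MOLM14 (MLL-AF9) or KO-52 (MLL wildtype) cells were grown in ultra-low attachment round-bottom wells with compound (0.3% DMSO) for 8 days at 37 °C. Spheroid confluence was imaged live on day 8, normalized to DMSO and a high-dose reference/staurosporin control, and absolute IC50 fitted with variable slope.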

KO-52 cells = experiment: Proliferation assay, spheroid-like growth, KO-52 (MLL wildtype control cell line); type: cell-based, human; settings: Homo sapiens, 192 h, KO-52 control cells, 8 days, confluence as measure of spheroid size; read-out: spheroid assay_OneTime KO-52 IC50
Description: The anti-proliferative effect of menin/MLL protein/protein interaction inhibitor test compounds was assessed in human leukemia cell lines. The cell line MOLM14 harbors a MLL translocation and expresses the MLL fusion proteins MLL-AF9, respectively, as well as the wildtype protein from the second allele. […] KO-52 was used as a control cell line containing two MLL (KMT2A) wildtype alleles in order to exclude compounds that display general cytotoxic effects.
MOLM14 cells were cultured in RPMI-1640 (Sigma Aldrich) supplemented with 10% heat-inactivated fetal bovine serum (HyClone), 2 mM L-glutamine (Sigma Aldrich) and 50 μg/ml gentamycin (Gibco). KO-52 cell lines were propagated in alpha-MEM (Sigma Aldrich) supplemented with 20% heat-inactivated fetal bovine serum (HyClone), 2 mM L-glutamine (Sigma Aldrich) and 50 μg/ml gentamycin (Gibco).
In order to assess the anti-proliferative effects, 200 MOLM14 cells, or 300 KO-52 cells were seeded in 200 μl media per well in 96-well round bottom, ultra-low attachment plates (Costar, catalogue number 7007). Cell seeding numbers were chosen based on growth curves to ensure linear growth throughout the experiment. Test compounds were added at different concentrations and the DMSO content was normalized to 0.3%. Cells were incubated for 8 days at 37° C. and 5% CO2. Spheroid like growth was measured in real-time by live-cell imaging (IncuCyteZOOM, Essenbio, 4× objective) acquiring images at day 8. Confluence (%) as a measure of spheroid size was determined using an integrated analysis tool.
In order to determine the effect of the test compounds over time, the confluence in each well as a measure of spheroid size, was calculated. Confluence of the highest dose of a reference compound was used as baseline for the LC (Low control) and the confluence of DMSO treated cells was used as 0% cytotoxicity (High Control, HC).
Absolute IC50 values were calculated as percent change in confluence as follows:
LC=Low Control: cells treated with e.g. 1 μM of the cytotoxic agent staurosporin, or e.g. cells treated with a high concentration of an alternative reference compound
GraphPad Prism (version 7.00) was used to calculate the IC50. Dose-response equation was used for the plot of % Effect vs Log 10 compound concentration with a variable slope and fixing the maximum to 100% and the minimum to 0%.

## CC(C)C([C@H]1C[C@@H](N2CC3(COC3)C2)C1)N1CC2(CCN(c3ncnnc3Oc3ccc(F)cc3-c3cncnc3C3CC3)C2)C1 (single isomer, unassigned) [Compound 20]
[1]
  IC50: 0.1 nM
MOLM14 cells
  IC50: 5 nM
KO-52 cells
  IC50: 4300 nM

## CC(C)C([C@H]1C[C@H](N2CC3(COC3)C2)C1)N1CC2(CCN(c3ncnnc3Oc3ccc(F)cc3-c3cncnc3C3CC3)C2)C1 (single isomer, unassigned) [Compound 21]
[1]
  IC50: 0.1 nM
MOLM14 cells
  IC50: 52 nM
KO-52 cells
  IC50: 4610 nM

## CC(C)[C@H]([C@H]1C[C@@H](N2CCC(O)CC2)C1)N1CC2(CCN(c3ncnnc3Oc3ccc(F)cc3-c3cncnc3C3CC3)C2)C1 (single isomer, unassigned) [Compound 22]
[1]
  IC50: 0.1 nM
MOLM14 cells
  IC50: 3 nM
KO-52 cells
  IC50: 10800 nM

## CC(C)[C@@H]([C@H]1C[C@@H](N2CCC(S(C)(=O)=O)CC2)C1)N1CC2(CCN(c3ncnnc3Oc3ccc(F)cc3-c3cccnc3C3CC3)C2)C1 (single isomer, unassigned) [Compound 23]
[1]
  IC50: 0.3 nM
MOLM14 cells
  IC50: 9 nM
KO-52 cells
  IC50: 1060 nM

## CC(C)[C@H]([C@H]1C[C@@H](N2CCC(S(C)(=O)=O)CC2)C1)N1CC2(CCN(c3ncnnc3Oc3ccc(F)cc3-c3ncccc3C3CC3)C2)C1 (single isomer, unassigned) [Compound 25]
[1]
  IC50: 0.1 nM
MOLM14 cells
  IC50: 85 nM
KO-52 cells
  IC50: 5570 nM

## CC(C)[C@@H]([C@H]1C[C@@H](N2CCC(S(C)(=O)=O)CC2)C1)N1CC2(CCN(c3ncnnc3Oc3ccc(F)cc3-c3ncccc3C3CC3)C2)C1 (single isomer, unassigned) [Compound 26]
[1]
  IC50: 6.2 nM
MOLM14 cells
  IC50: > 940 nM
KO-52 cells
  IC50: > 15000 nM

## CC(C)[C@H]([C@H]1C[C@@H](NC(=O)C2CC2)C1)N1CC2(CCN(c3ncnnc3Oc3ccc(F)cc3-c3ncccc3C3CC3)C2)C1 (single isomer, unassigned) [Compound 27]
[1]
  IC50: 0.1 nM
MOLM14 cells
  IC50: 36 nM
KO-52 cells
  IC50: 5560 nM

## CC(C)[C@@H](C1CCN(CC2COC2)CC1)N1CC2(CCN(c3ncnnc3Oc3ccc(F)cc3-c3cncnc3C3CC3)C2)C1 (single isomer, unassigned) [Compound 29]
[1]
  IC50: 1.8 nM
MOLM14 cells
  IC50: 220 nM
KO-52 cells
  IC50: > 15000 nM

## CC(C)[C@H]([C@H]1C[C@@H](N2CCC(F)C(O)C2)C1)N1CC2(CCN(c3ncnnc3Oc3ccc(F)cc3-c3cncnc3C3CC3)C2)C1 (single isomer, unassigned) [Compound 30]
[1]
  IC50: 0.3 nM
MOLM14 cells
  IC50: 29 nM
KO-52 cells
  IC50: 2580 nM

## CC(C)[C@H]([C@H]1C[C@H](N2CCC(F)C(O)C2)C1)N1CC2(CCN(c3ncnnc3Oc3ccc(F)cc3-c3cncnc3C3CC3)C2)C1 (single isomer, unassigned) [Compound 31]
[1]
  IC50: 0.3 nM
MOLM14 cells
  IC50: 7 nM
KO-52 cells
  IC50: 2410 nM

## CC(C)[C@H]([C@H]1C[C@H](N2CCC(O)C(F)C2)C1)N1CC2(CCN(c3ncnnc3Oc3ccc(F)cc3-c3cncnc3C3CC3)C2)C1 (single isomer, unassigned) [Compound 33]
[1]
  IC50: 0.3 nM
MOLM14 cells
  IC50: 7 nM
KO-52 cells
  IC50: 2490 nM

## CC(=O)N1CCN([C@H]2C[C@@H]([C@@H](C(C)C)N3CC4(CCN(c5ncnnc5Oc5ccc(F)cc5-c5cncnc5C5CC5)C4)C3)C2)CC1 (single isomer, unassigned) [Compound 34]
[1]
  IC50: 0.5 nM
MOLM14 cells
  IC50: 36 nM
KO-52 cells
  IC50: 5140 nM

## CC(=O)N1CCN([C@H]2C[C@H]([C@@H](C(C)C)N3CC4(CCN(c5ncnnc5Oc5ccc(F)cc5-c5cncnc5C5CC5)C4)C3)C2)CC1 (single isomer, unassigned) [Compound 35]
[1]
  IC50: 1.3 nM
MOLM14 cells
  IC50: 340 nM
KO-52 cells
  IC50: > 15000 nM

## CC(C)[C@H]([C@H]1C[C@@H](N2CCN(C(=O)N(C)C)CC2)C1)N1CC2(CCN(c3ncnnc3Oc3ccc(F)cc3-c3cncnc3C3CC3)C2)C1 (single isomer, unassigned) [Compound 36]
[1]
  IC50: 0.2 nM
MOLM14 cells
  IC50: 10 nM
KO-52 cells
  IC50: 3050 nM

## COCCN(C)[C@H]1C[C@@H]([C@@H](C(C)C)N2CC3(CCN(c4ncnnc4Oc4ccc(F)cc4-c4cncnc4C4CC4)C3)C2)C1 (single isomer, unassigned) [Compound 38]
[1]
  IC50: 0.2 nM
MOLM14 cells
  IC50: 6 nM
KO-52 cells
  IC50: > 15000 nM

## CC(C)[C@H]([C@H]1C[C@@H](NC2CC2)C1)N1CC2(CCN(c3ncnnc3Oc3ccc(F)cc3-c3cncnc3C3CC3)C2)C1 (single isomer, unassigned) [Compound 39]
[1]
  IC50: 0.1 nM
MOLM14 cells
  IC50: 7 nM
KO-52 cells
  IC50: 1480 nM

## CC(C)[C@H]([C@H]1C[C@@H](N2CC[C@@H](O)C23CC3)C1)N1CC2(CCN(c3ncnnc3Oc3ccc(F)cc3-c3cncnc3C3CC3)C2)C1 (single isomer, unassigned) [Compound 40]
[1]
  IC50: 0.2 nM
MOLM14 cells
  IC50: 10 nM
KO-52 cells
  IC50: 500 nM

## CC(C)[C@H]([C@H]1C[C@@H](N2CC[C@H](O)C23CC3)C1)N1CC2(CCN(c3ncnnc3Oc3ccc(F)cc3-c3cncnc3C3CC3)C2)C1 (single isomer, unassigned) [Compound 41]
[1]
  IC50: 0.2 nM
MOLM14 cells
  IC50: 12 nM
KO-52 cells
  IC50: > 15000 nM

## CC(C)[C@H]([C@H]1C[C@@H](N2C[C@H](O)C3(CC3)C2)C1)N1CC2(CCN(c3ncnnc3Oc3ccc(F)cc3-c3cncnc3C3CC3)C2)C1 (single isomer, unassigned) [Compound 45]
[1]
  IC50: 0.2 nM
MOLM14 cells
  IC50: < 2 nM
KO-52 cells
  IC50: 6330 nM

## CC(C)[C@H]([C@H]1C[C@@H](N2C[C@@H](O)C3(CC3)C2)C1)N1CC2(CCN(c3ncnnc3Oc3ccc(F)cc3-c3cncnc3C3CC3)C2)C1 (single isomer, unassigned) [Compound 46]
[1]
  IC50: 0.1 nM
MOLM14 cells
  IC50: 2 nM
KO-52 cells
  IC50: 5930 nM

## CC(C)[C@H]([C@H]1C[C@@H](N2CC[C@@](C)(O)C2)C1)N1CC2(CCN(c3ncnnc3Oc3ccc(F)cc3-c3cncnc3C3CC3)C2)C1 (single isomer, unassigned) [Compound 47]
[1]
  IC50: 0.2 nM
MOLM14 cells
  IC50: 3 nM
KO-52 cells
  IC50: 4360 nM

## CC(C)[C@H]([C@H]1C[C@@H](N2CCCCC2)C1)N1CC2(CCN(c3ncnnc3Oc3ccc(F)cc3-c3cncnc3C3CC3)C2)C1 (single isomer, unassigned) [Compound 48]
[1]
  IC50: 0.3 nM
MOLM14 cells
  IC50: 4 nM
KO-52 cells
  IC50: 1060 nM

## CC(C)[C@H]([C@H]1C[C@H](N2CCCCC2)C1)N1CC2(CCN(c3ncnnc3Oc3ccc(F)cc3-c3cncnc3C3CC3)C2)C1 (single isomer, unassigned) [Compound 49]
[1]
  IC50: 0.6 nM
MOLM14 cells
  IC50: 27 nM
KO-52 cells
  IC50: 2130 nM

## CC(C)[C@H]([C@H]1C[C@@H](N2CCC[C@@H](C(=O)N(C)C)C2)C1)N1CC2(CCN(c3ncnnc3Oc3ccc(F)cc3-c3cncnc3C3CC3)C2)C1 (single isomer, unassigned) [Compound 50]
[1]
  IC50: 0.1 nM
MOLM14 cells
  IC50: < 2 nM
KO-52 cells
  IC50: > 15000 nM
